From PubChem BioAssay (NCI)
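48-hour exposure; five concentrations; linearly interpolated endpoints. Definition used: TGI = concentration required for complete inhibition of growth.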

Assays:
Assay in all cases: NCI tumour cell line growth inhibition, 48 h
DMS 114 small cell lung = system: DMS 114 small cell lung
HOP-18 NSCLC = system: HOP-18 NSCLC
KM20L2 colon = system: KM20L2 colon
P388 leukemia = system: P388 leukemia
P388/ADR leukemia = system: P388/ADR leukemia
SN12K1 renal = system: SN12K1 renal
RXF-631 renal = system: RXF-631 renal

SMILES | TGI (DMS 114 small cell lung) [µM] | TGI (HOP-18 NSCLC) [µM] | TGI (KM20L2 colon) [µM] | TGI (P388 leukemia) [µM] | TGI (P388/ADR leukemia) [µM] | TGI (SN12K1 renal) [µM] | TGI (RXF-631 renal) [µM]
Cc1c(CNc2ccc(C(=O)NC(CC(=O)O)C(=O)O)cc2)ccc2nc(N)nc(N)c12 (stereo not drawn) | > 66.7 |  |  |  |  |  | 
CCCC(O)C(NC(=O)CCl)C(=O)O (stereo not drawn) | > 100 | > 100 | > 100 | > 100 | > 100 | > 100 | 
COc1cc2c(cc1O)C1C(O)C(O)C=C3CCN(C2)C31 (stereo not drawn) | 4.33 | 8.19 | 18.3 |  |  |  | 28.2
CC(C)=CCc1c(O)ccc2ccc(=O)oc12 | 93.6 | > 100 | > 100 | > 100 | > 100 | > 100 | 
COc1cccc2c1C(=O)c1c(O)c3c(c(O)c1C2=O)C[C@@](O)(C(=O)CO)C[C@@H]3OC1CC(N)C(OC)C(C)O1 (stereo partly drawn) |  | 0.977 | 4.83 |  |  |  | 0.747
CC#C[P+](c1ccccc1)(c1ccccc1)c1ccccc1 | 9.95 | 25.4 | 21.3 |  |  |  | 
